Reference: the supplement of paper PMC13380429

How the values were obtained:
Settings in all cases: 72 h
U2OS [1] = assay: drug sensitivity score (DSS) for viability; higher = more toxic; extreme values may be limits of the assay
HepG2 [2] = assay: as above
Vero E6 [3] = assay: as above
Calu-3 [4] = assay: as above
Caco-2 [5] = assay: as above
U2OS [6] = assay: relative viability EC50 (midpoint between 100% and the lowest measured viability); higher = less toxic
HepG2 [7] = assay: as above
Vero E6 [8] = assay: as above
Calu-3 [9] = assay: as above
Caco-2 [10] = assay: as above
U2OS [11] = assay: cell viability relative to DMSO; higher = less toxic
HepG2 [12] = assay: as above
Vero E6 [13] = assay: as above
Calu-3 [14] = assay: as above
Caco-2 [15] = assay: as above

| SMILES | drug sensitivity score (U2OS [1]) | drug sensitivity score (HepG2 [2]) | drug sensitivity score (Vero E6 [3]) | drug sensitivity score (Calu-3 [4]) | drug sensitivity score (Caco-2 [5]) | relative viability EC50 (U2OS [6]) [µM] | relative viability EC50 (HepG2 [7]) [µM] | relative viability EC50 (Vero E6 [8]) [µM] | relative viability EC50 (Calu-3 [9]) [µM] | relative viability EC50 (Caco-2 [10]) [µM] | cell viability (U2OS [11]; 1 nM) [%] | cell viability (U2OS [11]; 10 nM) [%] | cell viability (U2OS [11]; 100 nM) [%] | cell viability (U2OS [11]; 1000 nM) [%] | cell viability (U2OS [11]; 10000 nM) [%] | cell viability (HepG2 [12]; 1 nM) [%] | cell viability (HepG2 [12]; 10 nM) [%] | cell viability (HepG2 [12]; 100 nM) [%] | cell viability (HepG2 [12]; 1000 nM) [%] | cell viability (HepG2 [12]; 10000 nM) [%] | cell viability (Vero E6 [13]; 1 nM) [%] | cell viability (Vero E6 [13]; 10 nM) [%] | cell viability (Vero E6 [13]; 100 nM) [%] | cell viability (Vero E6 [13]; 1000 nM) [%] | cell viability (Vero E6 [13]; 10000 nM) [%] | cell viability (Calu-3 [14]; 1 nM) [%] | cell viability (Calu-3 [14]; 10 nM) [%] | cell viability (Calu-3 [14]; 100 nM) [%] | cell viability (Calu-3 [14]; 1000 nM) [%] | cell viability (Calu-3 [14]; 10000 nM) [%] | cell viability (Caco-2 [15]; 1 nM) [%] | cell viability (Caco-2 [15]; 10 nM) [%] | cell viability (Caco-2 [15]; 100 nM) [%] | cell viability (Caco-2 [15]; 1000 nM) [%] | cell viability (Caco-2 [15]; 10000 nM) [%] |
| --- | --- | --- | --- | --- | --- | --- | --- | --- | --- | --- | --- | --- | --- | --- | --- | --- | --- | --- | --- | --- | --- | --- | --- | --- | --- | --- | --- | --- | --- | --- | --- | --- | --- | --- | --- |
| O=C1NCCNC1c1cccs1 (stereo not given) [tenilsetam] | 0 | 0 | 0 | 0 | 0 | > 10 | > 10 | > 10 | > 10 | > 10 | 103 | 96.3 | 104 | 96.2 | 102 | 106 | 106 | 96.4 | 97.2 | 92.3 | 97.2 | 103 | 90.1 | 97.7 | 101 | 92.3 | 98.2 | 100 | 97.1 | 99.1 | 105 | 95.1 | 103 | 97.5 | 97.4 |
| CN(C/C=C/C#CC(C)(C)C)Cc1cccc2ccccc12 [terbinafine] | 0 | 0 | 0 | 0 | 0 | > 10 | > 10 | > 10 | > 10 | > 10 | 103 | 98.9 | 95.3 | 99.5 | 102 | 99.4 | 91.9 | 101 | 99.6 | 89 | 104 | 94.2 | 109 | 94.5 | 95.6 | 103 | 102 | 106 | 92.9 | 114 | 93 | 81.1 | 90.5 | 112 | 88.5 |
| Clc1ccc(C(Cn2ccnc2)OCc2ccsc2Cl)c(Cl)c1 (stereo not given) [tioconazole] | 0 | 0 | 0 | 0 | 0.6 | > 10 | > 10 | > 10 | > 10 | > 10 | 100 | 97.2 | 96.9 | 92.9 | 93 | 108 | 100 | 112 | 102 | 90.7 | 100 | 104 | 99.8 | 97 | 101 | 103 | 92.8 | 102 | 90.8 | 99.5 | 106 | 95 | 93.5 | 99 | 81.2 |
| CC(=O)Nc1cccc(-n2c(=O)n(C3CC3)c(=O)c3c(Nc4ccc(I)cc4F)n(C)c(=O)c(C)c32)c1 [trametinib] | 9 | 30.5 | 19.2 | 19 | 26.5 | 0.695 | 0.0064 | 0.129 | 0.0536 | 0.0156 | 99.3 | 91.9 | 89.7 | 60.8 | 29.3 | 99.3 | 45.5 | 30.5 | 25.3 | 23.2 | 101 | 94.2 | 67.9 | 15.7 | 15.8 | 94.8 | 73.6 | 62 | 33.8 | 24.8 | 80.4 | 65.4 | 40.6 | 21.3 | 16 |
| CC(/C=C/C(=O)NO)=C\[C@@H](C)C(=O)c1ccc(N(C)C)cc1 [trichostatin-a] | 21.4 | 20.6 | 24.6 | 16 | 24.9 | 0.162 | 0.194 | 0.0838 | 0.336 | 0.0788 | 99.7 | 95.4 | 77.3 | 1 | 0.7 | 101 | 93.1 | 84.2 | 0.4 | 0 | 98.7 | 94.4 | 44 | -0.2 | -0.1 | 107 | 103 | 89 | 20.4 | 7.5 | 97.3 | 101 | 37.1 | 2.4 | 3 |
| CC1Sc2c(C(=O)O)c(=O)c3cc(F)c(N4CCNCC4)cc3n21 (stereo not given) [ulifloxacin] | 0.5 | 0.7 | 0 | 0 | 0 | > 10 | > 10 | > 10 | > 10 | > 10 | 99.1 | 101 | 98.2 | 97.9 | 83.8 | 112 | 98.9 | 86.5 | 98.2 | 78.9 | 96.5 | 95.9 | 109 | 104 | 90.5 | 116 | 95.3 | 94 | 106 | 102 | 95.8 | 124 | 107 | 108 | 104 |
| Oc1nc(O)c2nc(O)[nH]c2n1 [uric-acid] | 0 | 0 | 0 | 0 | 0 | > 10 | > 10 | > 10 | > 10 | > 10 | 101 | 107 | 99.6 | 102 | 98.4 | 94.7 | 97.1 | 95.9 | 92.5 | 96 | 98 | 104 | 97.9 | 102 | 98.4 | 96 | 95.3 | 93.5 | 98.4 | 101 | 96.5 | 98 | 92.6 | 91 | 95.9 |
| C[C@@H]1O[C@@H](O[C@@H]2[C@@H](O)[C@H](OCCc3ccc(O)c(O)c3)O[C@H](CO)[C@H]2OC(=O)/C=C/c2ccc(O)c(O)c2)[C@H](O)[C@H](O)[C@H]1O [verbascoside] | 0 | 0 | 0 | 0 | 0 | > 10 | > 10 | > 10 | > 10 | > 10 | 97.9 | 100 | 96.5 | 96.8 | 93.6 | 95.3 | 102 | 101 | 106 | 104 | 98.9 | 99.8 | 94.4 | 101 | 104 | 98.6 | 93.3 | 106 | 105 | 97.1 | 96.4 | 89.7 | 97.8 | 99.8 | 96.9 |
| CCOc1ccccc1OCC1CNCCO1 (stereo not given) [viloxazine] | 0 | 0 | 0 | 0 | 0 | > 10 | > 10 | > 10 | > 10 | > 10 | 94.8 | 98.5 | 102 | 104 | 105 | 116 | 91.7 | 111 | 94.7 | 96.6 | 96.4 | 89.4 | 94.1 | 92.2 | 102 | 86.6 | 98.2 | 98.6 | 100 | 111 | 111 | 99.5 | 113 | 118 | 95.6 |
| CC[C@]12CCCN3CCc4c(n(c5ccccc45)[C@@](O)(C(=O)OC)C1)[C@@H]32 [vincamine] | 0 | 0 | 0 | 0 | 0 | > 10 | > 10 | > 10 | > 10 | > 10 | 95.3 | 99.3 | 96.2 | 99.7 | 97.3 | 99.1 | 73.5 | 118 | 102 | 97.7 | 103 | 89.9 | 104 | 94 | 97.7 | 103 | 94.2 | 94.9 | 95.6 | 102 | 101 | 105 | 91.6 | 101 | 100 |
| CCCCCCOc1nsnc1C1=CCCN(C)C1 [xanomeline] | 0 | 0.7 | 0 | 0 | 0 | > 10 | > 10 | > 10 | > 10 | > 10 | 95.3 | 102 | 97.5 | 98.9 | 92.3 | 102 | 102 | 100 | 99.3 | 79.3 | 105 | 104 | 106 | 101 | 95.9 | 101 | 115 | 100 | 104 | 96.6 | 109 | 93.8 | 99.1 | 92.3 | 99.1 |
